# Laboratory results as given in PubChem BioAssay (NCI).
#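 96-well plates; 48 h exposure; 5 concentrations. Endpoints by linear interpolation between flanking doses. Not reached: highest tested concentration assigned. The concentration for full growth arrest is given as TGI.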
# System: OVCAR-3 ovarian
# Assay: inhibition of tumour cell growth, NCI panel, 48 h
row,Compound,TGI
1,CN1N(c2ccccc2)C(=O)C2=NC=C(C(=O)c3ccccc3)C(=N)C21C (configuration not stated),> 100 µM
2,O=C1c2ccc3c4ccc5c6c(ccc(c7ccc(c2c37)C(=O)N1CCN1CCCCC1)c64)C(=O)N(CCN1CCCCC1)C5=O,> 100 µM

# System: UO-31 renal
# Assay: inhibition of tumour cell growth, NCI panel, 48 h
row,Compound,TGI
1,Cc1ccc(S(=O)(=O)N/N=C2/C3CCC(C3)C2c2ccccc2)cc1 (configuration not stated),> 100 µM
2,CN1N(c2ccccc2)C(=O)C2=NC=C(C(=O)c3ccccc3)C(=N)C21C (configuration not stated),> 100 µM
3,Cc1cc(=O)[nH]c(-n2[nH]c3c(c2=O)CCCC3)n1,> 100 µM
4,O=C1c2ccc3c4ccc5c6c(ccc(c7ccc(c2c37)C(=O)N1CCN1CCCCC1)c64)C(=O)N(CCN1CCCCC1)C5=O,> 100 µM
5,Cc1cccc(NS(=O)(=O)c2ccc3c(c2)OCCOCCOCCOCCO3)c1,> 100 µM

# System: SF-295 CNS
# Assay: inhibition of tumour cell growth, NCI panel, 48 h
row,Compound,TGI
1,Cc1ccc(S(=O)(=O)N/N=C2/C3CCC(C3)C2c2ccccc2)cc1 (configuration not stated),> 100 µM
2,CN1N(c2ccccc2)C(=O)C2=NC=C(C(=O)c3ccccc3)C(=N)C21C (configuration not stated),> 100 µM
3,Cc1cc(=O)[nH]c(-n2[nH]c3c(c2=O)CCCC3)n1,> 100 µM
4,O=C1c2ccc3c4ccc5c6c(ccc(c7ccc(c2c37)C(=O)N1CCN1CCCCC1)c64)C(=O)N(CCN1CCCCC1)C5=O,> 100 µM
5,Cc1cccc(NS(=O)(=O)c2ccc3c(c2)OCCOCCOCCOCCO3)c1,> 100 µM

# System: ACHN renal
# Assay: inhibition of tumour cell growth, NCI panel, 48 h
row,Compound,TGI
1,Cc1ccc(S(=O)(=O)N/N=C2/C3CCC(C3)C2c2ccccc2)cc1 (configuration not stated),> 100 µM
2,CN1N(c2ccccc2)C(=O)C2=NC=C(C(=O)c3ccccc3)C(=N)C21C (configuration not stated),> 100 µM
3,Cc1cc(=O)[nH]c(-n2[nH]c3c(c2=O)CCCC3)n1,> 100 µM
4,O=C1c2ccc3c4ccc5c6c(ccc(c7ccc(c2c37)C(=O)N1CCN1CCCCC1)c64)C(=O)N(CCN1CCCCC1)C5=O,> 100 µM
5,Cc1cccc(NS(=O)(=O)c2ccc3c(c2)OCCOCCOCCOCCO3)c1,> 100 µM

# System: SR leukemia
# Assay: inhibition of tumour cell growth, NCI panel, 48 h
row,Compound,TGI
1,Cc1ccc(S(=O)(=O)N/N=C2/C3CCC(C3)C2c2ccccc2)cc1 (configuration not stated),> 100 µM
2,CN1N(c2ccccc2)C(=O)C2=NC=C(C(=O)c3ccccc3)C(=N)C21C (configuration not stated),> 100 µM
3,Cc1cc(=O)[nH]c(-n2[nH]c3c(c2=O)CCCC3)n1,> 100 µM
4,O=C1c2ccc3c4ccc5c6c(ccc(c7ccc(c2c37)C(=O)N1CCN1CCCCC1)c64)C(=O)N(CCN1CCCCC1)C5=O,> 100 µM
5,Cc1cccc(NS(=O)(=O)c2ccc3c(c2)OCCOCCOCCOCCO3)c1,> 100 µM

# System: M14 melanoma
# Assay: inhibition of tumour cell growth, NCI panel, 48 h
row,Compound,TGI
1,Cc1ccc(S(=O)(=O)N/N=C2/C3CCC(C3)C2c2ccccc2)cc1 (configuration not stated),> 100 µM
2,CN1N(c2ccccc2)C(=O)C2=NC=C(C(=O)c3ccccc3)C(=N)C21C (configuration not stated),> 100 µM
3,Cc1cc(=O)[nH]c(-n2[nH]c3c(c2=O)CCCC3)n1,> 100 µM
4,O=C1c2ccc3c4ccc5c6c(ccc(c7ccc(c2c37)C(=O)N1CCN1CCCCC1)c64)C(=O)N(CCN1CCCCC1)C5=O,> 100 µM
5,Cc1cccc(NS(=O)(=O)c2ccc3c(c2)OCCOCCOCCOCCO3)c1,> 100 µM

# System: NCI-H460 lung
# Assay: inhibition of tumour cell growth, NCI panel, 48 h
row,Compound,TGI
1,Cc1ccc(S(=O)(=O)N/N=C2/C3CCC(C3)C2c2ccccc2)cc1 (configuration not stated),> 100 µM
2,CN1N(c2ccccc2)C(=O)C2=NC=C(C(=O)c3ccccc3)C(=N)C21C (configuration not stated),> 100 µM
3,Cc1cc(=O)[nH]c(-n2[nH]c3c(c2=O)CCCC3)n1,> 100 µM
4,O=C1c2ccc3c4ccc5c6c(ccc(c7ccc(c2c37)C(=O)N1CCN1CCCCC1)c64)C(=O)N(CCN1CCCCC1)C5=O,> 100 µM
5,Cc1cccc(NS(=O)(=O)c2ccc3c(c2)OCCOCCOCCOCCO3)c1,> 100 µM

# System: NCI-H23 lung
# Assay: inhibition of tumour cell growth, NCI panel, 48 h
row,Compound,TGI
1,Cc1ccc(S(=O)(=O)N/N=C2/C3CCC(C3)C2c2ccccc2)cc1 (configuration not stated),> 100 µM
2,CN1N(c2ccccc2)C(=O)C2=NC=C(C(=O)c3ccccc3)C(=N)C21C (configuration not stated),> 100 µM
3,Cc1cc(=O)[nH]c(-n2[nH]c3c(c2=O)CCCC3)n1,> 100 µM
4,O=C1c2ccc3c4ccc5c6c(ccc(c7ccc(c2c37)C(=O)N1CCN1CCCCC1)c64)C(=O)N(CCN1CCCCC1)C5=O,> 100 µM
5,Cc1cccc(NS(=O)(=O)c2ccc3c(c2)OCCOCCOCCOCCO3)c1,> 100 µM

# System: HCT-15 colon
# Assay: inhibition of tumour cell growth, NCI panel, 48 h
row,Compound,TGI
1,Cc1ccc(S(=O)(=O)N/N=C2/C3CCC(C3)C2c2ccccc2)cc1 (configuration not stated),> 100 µM
2,CN1N(c2ccccc2)C(=O)C2=NC=C(C(=O)c3ccccc3)C(=N)C21C (configuration not stated),> 100 µM
3,Cc1cc(=O)[nH]c(-n2[nH]c3c(c2=O)CCCC3)n1,> 100 µM
4,O=C1c2ccc3c4ccc5c6c(ccc(c7ccc(c2c37)C(=O)N1CCN1CCCCC1)c64)C(=O)N(CCN1CCCCC1)C5=O,> 100 µM
5,Cc1cccc(NS(=O)(=O)c2ccc3c(c2)OCCOCCOCCOCCO3)c1,> 100 µM

# System: TK-10 renal
# Assay: inhibition of tumour cell growth, NCI panel, 48 h
row,Compound,TGI
1,Cc1ccc(S(=O)(=O)N/N=C2/C3CCC(C3)C2c2ccccc2)cc1 (configuration not stated),> 100 µM
2,CN1N(c2ccccc2)C(=O)C2=NC=C(C(=O)c3ccccc3)C(=N)C21C (configuration not stated),> 100 µM
3,Cc1cc(=O)[nH]c(-n2[nH]c3c(c2=O)CCCC3)n1,> 100 µM
4,O=C1c2ccc3c4ccc5c6c(ccc(c7ccc(c2c37)C(=O)N1CCN1CCCCC1)c64)C(=O)N(CCN1CCCCC1)C5=O,> 100 µM
5,Cc1cccc(NS(=O)(=O)c2ccc3c(c2)OCCOCCOCCOCCO3)c1,> 100 µM

# System: UACC-62 melanoma
# Assay: inhibition of tumour cell growth, NCI panel, 48 h
row,Compound,TGI
1,Cc1ccc(S(=O)(=O)N/N=C2/C3CCC(C3)C2c2ccccc2)cc1 (configuration not stated),> 100 µM
2,CN1N(c2ccccc2)C(=O)C2=NC=C(C(=O)c3ccccc3)C(=N)C21C (configuration not stated),> 100 µM
3,Cc1cc(=O)[nH]c(-n2[nH]c3c(c2=O)CCCC3)n1,> 100 µM
4,O=C1c2ccc3c4ccc5c6c(ccc(c7ccc(c2c37)C(=O)N1CCN1CCCCC1)c64)C(=O)N(CCN1CCCCC1)C5=O,> 100 µM
5,Cc1cccc(NS(=O)(=O)c2ccc3c(c2)OCCOCCOCCOCCO3)c1,> 100 µM

# System: SK-MEL-28 melanoma
# Assay: inhibition of tumour cell growth, NCI panel, 48 h
row,Compound,TGI
1,Cc1ccc(S(=O)(=O)N/N=C2/C3CCC(C3)C2c2ccccc2)cc1 (configuration not stated),> 100 µM
2,CN1N(c2ccccc2)C(=O)C2=NC=C(C(=O)c3ccccc3)C(=N)C21C (configuration not stated),> 100 µM
3,Cc1cc(=O)[nH]c(-n2[nH]c3c(c2=O)CCCC3)n1,> 100 µM
4,O=C1c2ccc3c4ccc5c6c(ccc(c7ccc(c2c37)C(=O)N1CCN1CCCCC1)c64)C(=O)N(CCN1CCCCC1)C5=O,> 100 µM
5,Cc1cccc(NS(=O)(=O)c2ccc3c(c2)OCCOCCOCCOCCO3)c1,> 100 µM

# System: K-562 leukemia
# Assay: inhibition of tumour cell growth, NCI panel, 48 h
row,Compound,TGI
1,Cc1ccc(S(=O)(=O)N/N=C2/C3CCC(C3)C2c2ccccc2)cc1 (configuration not stated),> 100 µM
2,CN1N(c2ccccc2)C(=O)C2=NC=C(C(=O)c3ccccc3)C(=N)C21C (configuration not stated),> 100 µM
3,Cc1cc(=O)[nH]c(-n2[nH]c3c(c2=O)CCCC3)n1,> 100 µM
4,O=C1c2ccc3c4ccc5c6c(ccc(c7ccc(c2c37)C(=O)N1CCN1CCCCC1)c64)C(=O)N(CCN1CCCCC1)C5=O,> 100 µM
5,Cc1cccc(NS(=O)(=O)c2ccc3c(c2)OCCOCCOCCOCCO3)c1,> 100 µM

# System: BT-549 breast
# Assay: inhibition of tumour cell growth, NCI panel, 48 h
row,Compound,TGI
1,Cc1ccc(S(=O)(=O)N/N=C2/C3CCC(C3)C2c2ccccc2)cc1 (configuration not stated),> 100 µM
2,CN1N(c2ccccc2)C(=O)C2=NC=C(C(=O)c3ccccc3)C(=N)C21C (configuration not stated),> 100 µM
3,Cc1cc(=O)[nH]c(-n2[nH]c3c(c2=O)CCCC3)n1,> 100 µM
4,O=C1c2ccc3c4ccc5c6c(ccc(c7ccc(c2c37)C(=O)N1CCN1CCCCC1)c64)C(=O)N(CCN1CCCCC1)C5=O,> 100 µM
5,Cc1cccc(NS(=O)(=O)c2ccc3c(c2)OCCOCCOCCOCCO3)c1,> 100 µM
